Test results published in patent publication US20040010036A1, “N,N, -Substituted s-Aryl-Isothioureas, N,N,N, -Substituted s-Aryl-Isothioureas and combinatorial libraries thereof” (priority 2002, published 2004).

Each compound was assayed on Streptococcus pyogenes (ATCC# 97-03 14289) (assay: Anti-microbial screen (percent inhibition of growth, OD 570 nm)). Details: Spy4H: Streptococcus pyogenes, read at 4 hours, OD 570 nm; Conc 0.1776 mg ml.
Assay type: cell-based
Description: Streptococcus pyogenes (ATCC# 97-03 14289) was grown in Todd Hewitt Broth (THB) (Difco Laboratories #0492-17-6) overnight until reaching an optical density of (OD=0.636@570 nm) by reading 0.1 ml in a 96 well microtiter plate in a Molecular Devices Thermomax. This preparation was kept frozen as stocks in 30% v/v glycerol in 1.5 ml aliquots at […] until use. Prior to experiments, 6 ml aliquots were thawed and diluted into 50 ml 2×THB. 60 ul of this dilution was added to 92 wells of microtiter plate. To three wells THB (200 ul) was added to serve as a blank and a sterility control. Test compounds in DMSO and appropriate concentrations of DMSO were added to Growth/Solvent Controls at 0 time. Plates were read at 0 time at 570 nm in the Molecular Devices plate reader to obtain compounds correction factors for insoluble or colored compounds. Plates were read again at 4 hours.
Percent inhibition is calculated with the following formula:
Color correct=O.D. 0 hr - Blank 0 hr)-(Solvent Control Ohr - Blank 0 hr) [formula]

SMILES	inhibition of growth at 177.6 µg/mL [%]
Cc1ccc(CN(Cc2ccc(O)cc2)/C(=N\c2ccc(C(F)(F)F)cc2)Sc2ccc(C)cc2C)cc1 [Cmpd 7]	63.7
Cc1ccc(CN(Cc2ccc(O)cc2)/C(=N/c2ccc(Cl)c(Cl)c2)Sc2ccc(C)cc2C)cc1 [Cmpd 8]	57.5
Cc1ccc(CN(Cc2ccc(O)cc2)/C(=N/c2cc(Cl)cc(Cl)c2)Sc2ccc(C)cc2C)cc1 [Cmpd 13]	65.7
Cc1ccc(CN(Cc2ccc(O)cc2)/C(=N\c2ccc(Cl)c([N+](=O)[O-])c2)Sc2ccc(C)cc2C)cc1 [Cmpd 23]	61.3
Cc1ccc(CN(Cc2ccc(O)cc2)/C(=N/c2ccccc2[N+](=O)[O-])Sc2ccc(C)cc2C)cc1 [Cmpd 26]	58.1
Cc1ccc(CN(Cc2ccc(O)cc2)/C(=N\c2ccc(Cl)c(C(F)(F)F)c2)Sc2ccc(C)cc2C)cc1 [Cmpd 33]	57.8
COc1cccc(S/C(=N\Cc2ccc(F)cc2)N(Cc2ccc(O)cc2)Cc2ccc(Cl)c(Cl)c2)c1 [Cmpd 44]	67.5
COc1cccc(S/C(=N\c2cccc(C(F)(F)F)c2)N(Cc2ccc(O)cc2)Cc2ccc(Cl)c(Cl)c2)c1 [Cmpd 46]	60.6
COc1cccc(S/C(=N\c2ccc(C(F)(F)F)cc2)N(Cc2ccc(O)cc2)Cc2ccc(Cl)c(Cl)c2)c1 [Cmpd 47]	85.8
COc1cccc(S/C(=N\c2cc(Cl)cc(Cl)c2)N(Cc2ccc(O)cc2)Cc2ccc(Cl)c(Cl)c2)c1 [Cmpd 53]	70.2
COc1cccc(S/C(=N\c2ccc(Cl)c([N+](=O)[O-])c2)N(Cc2ccc(O)cc2)Cc2ccc(Cl)c(Cl)c2)c1 [Cmpd 63]	66.8
COc1cccc(S/C(=N/c2ccc(Cl)c(C(F)(F)F)c2)N(Cc2ccc(O)cc2)Cc2ccc(Cl)c(Cl)c2)c1 [Cmpd 73]	85.8
COCCN(Cc1cccc(O)c1)/C(=N\c1cccc(F)c1)Sc1ccc(C)cc1C [Cmpd 83]	70.9
COCCN(Cc1cccc(O)c1)/C(=N\c1ccc(F)cc1F)Sc1ccc(C)cc1C [Cmpd 85]	82.3
COCCN(Cc1cccc(O)c1)/C(=N\c1ccc(C)cc1)Sc1ccc(C)cc1C [Cmpd 90]	81.3
COCCN(Cc1cccc(O)c1)/C(=N\c1cccc(Cl)c1)Sc1ccc(C)cc1C [Cmpd 92]	59.8
CCc1cccc(/N=C(/Sc2ccc(C)cc2C)N(CCOC)Cc2cccc(O)c2)c1 [Cmpd 98]	69.9

SMILES	inhibition of growth at 177.6 µg/mL [%]
COCCN(Cc1cccc(O)c1)/C(=N\c1ccc(Cl)c([N+](=O)[O-])c1)Sc1ccc(C)cc1C [Cmpd 103]	58.9
COCCN(Cc1cccc(O)c1)/C(=N\c1ccc(Cl)c(C(F)(F)F)c1)Sc1ccc(C)cc1C [Cmpd 113]	59.8
COc1cccc(S/C(=N/c2ccc(C(F)(F)F)cc2)N(Cc2ccc(C)cc2)Cc2ccc(O)cc2)c1 [Cmpd 127]	61.5
COc1cccc(S/C(=N\c2cc(Cl)cc(Cl)c2)N(Cc2ccc(C)cc2)Cc2ccc(O)cc2)c1 [Cmpd 133]	94.3
COc1cccc(S/C(=N/c2ccc(Cl)c([N+](=O)[O-])c2)N(Cc2ccc(C)cc2)Cc2ccc(O)cc2)c1 [Cmpd 143]	93.6
COc1cccc(S/C(=N/c2ccc(Cl)c(C(F)(F)F)c2)N(Cc2ccc(C)cc2)Cc2ccc(O)cc2)c1 [Cmpd 153]	70.6
Cc1ccc(S/C(=N\c2ccc(C(F)(F)F)cc2)N(Cc2ccc(O)cc2)Cc2cccc(Cl)c2)cc1 [Cmpd 167]	71
Cc1ccc(S/C(=N\c2cc(Cl)cc(Cl)c2)N(Cc2ccc(O)cc2)Cc2cccc(Cl)c2)cc1 [Cmpd 173]	70.7
Cc1ccc(S/C(=N\c2ccc(Cl)c([N+](=O)[O-])c2)N(Cc2ccc(O)cc2)Cc2cccc(Cl)c2)cc1 [Cmpd 183]	64.8
COc1ccc(C)cc1/N=C(\Sc1ccc(C)cc1)N(Cc1ccc(O)cc1)Cc1cccc(Cl)c1 [Cmpd 189]	61.8
Cc1ccc(CN(Cc2cccc(O)c2)/C(=N/Cc2ccc(F)cc2)Sc2ccc(C)cc2C)cc1 [Cmpd 204]	69.1
Cc1ccc(CN(Cc2cccc(O)c2)/C(=N\c2ccc(C(F)(F)F)cc2)Sc2ccc(C)cc2C)cc1 [Cmpd 207]	95.9
Cc1ccc(CN(Cc2cccc(O)c2)/C(=N/c2ccccc2[N+](=O)[O-])Sc2ccc(C)cc2C)cc1 [Cmpd 226]	74.4
COc1ccc(C)cc1/N=C(\Sc1ccc(C)cc1C)N(Cc1ccc(C)cc1)Cc1cccc(O)c1 [Cmpd 229]	65.8
Cc1ccc(CN(Cc2cccc(O)c2)/C(=N\c2ccc(Cl)c(C(F)(F)F)c2)Sc2ccc(C)cc2C)cc1 [Cmpd 233]	60.5
Cc1ccc(S/C(=N/c2ccc(C(F)(F)F)cc2)N(Cc2ccc(O)cc2)CC(C)C)cc1 [Cmpd 247]	60.3
Cc1ccc(S/C(=N/c2cc(Cl)cc(Cl)c2)N(Cc2ccc(O)cc2)CC(C)C)cc1 [Cmpd 253]	66.5

Same assay, conditions: Streptococcus pyogenes; Assay Spy4H; Conc 0.1776 mg ml; plates read at 570 nm at 0 time and at 4 hours

SMILES	inhibition of growth at 177.6 µg/mL [%]
COc1ccc(C)cc1/N=C(\Sc1ccc(C)cc1C)N(Cc1ccc(C)cc1)Cc1ccc(O)cc1 [Cmpd 29]	53.7
Cc1ccc(CN(Cc2ccc(O)cc2)/C(=N/c2ccc(F)c(F)c2)Sc2ccc(C)cc2C)cc1 [Cmpd 36]	56.8
COc1cccc(S/C(=N\c2cccc(Cl)c2)N(Cc2ccc(O)cc2)Cc2ccc(Cl)c(Cl)c2)c1 [Cmpd 52]	52.6
COc1cccc(S/C(=N/c2ccc(OC(F)(F)F)cc2)N(Cc2ccc(O)cc2)Cc2ccc(Cl)c(Cl)c2)c1 [Cmpd 75]	52.3
COCCN(Cc1cccc(O)c1)/C(=N\c1ccc(F)c(Cl)c1)Sc1ccc(C)cc1C [Cmpd 94]	54
COCCN(Cc1cccc(O)c1)/C(=N\c1cc(C)ccc1OC)Sc1ccc(C)cc1C [Cmpd 109]	56.3
COc1cccc(S/C(=N\Cc2ccc(F)cc2)N(Cc2ccc(C)cc2)Cc2ccc(O)cc2)c1 [Cmpd 124]	55.6
Cc1ccc(S/C(=N\c2ccc(Cl)c(Cl)c2)N(Cc2ccc(O)cc2)Cc2cccc(Cl)c2)cc1 [Cmpd 168]	49.5
Cc1ccc(S/C(=N\c2ccccc2[N+](=O)[O-])N(Cc2ccc(O)cc2)Cc2cccc(Cl)c2)cc1 [Cmpd 186]	56.5
Cc1ccc(CN(Cc2cccc(O)c2)/C(=N/Cc2cccc(C)c2)Sc2ccc(C)cc2C)cc1 [Cmpd 202]	51.9
Cc1ccc(CN(Cc2cccc(O)c2)/C(=N/c2cc(Cl)cc(Cl)c2)Sc2ccc(C)cc2C)cc1 [Cmpd 213]	57.1
Cc1ccc(S/C(=N/Cc2ccccc2)N(Cc2ccc(O)cc2)CC(C)C)cc1 [Cmpd 241]	49.8
Cc1ccc(S/C(=N/Cc2ccc(F)cc2)N(Cc2ccc(O)cc2)CC(C)C)cc1 [Cmpd 244]	51.6
Cc1ccc(S/C(=N/c2ccc(Cl)c(Cl)c2)N(Cc2ccc(O)cc2)CC(C)C)cc1 [Cmpd 248]	55
Cc1ccc(S/C(=N/c2ccc(F)c(Cl)c2)N(Cc2ccc(O)cc2)CC(C)C)cc1 [Cmpd 254]	49.2
Cc1ccc(S/C(=N/c2ccc(Cl)c([N+](=O)[O-])c2)N(Cc2ccc(O)cc2)CC(C)C)cc1 [Cmpd 263]	53.8
